# According to patent US20200131669A1, “CYCLIC PEPTIDE COMPOUND HAVING HIGH MEMBRANE PERMEABILITY, AND LIBRARY CONTAINING SAME” (Chugai Seiyaku Kabushiki Kaisha, priority 2017, published 2020):
# Starred links: 1 amine or outer side, 2 acyl side, 3 side chain; linkers in the order of their positions; H or OH if unused. Positions of bridges follow the written chain, without caps; N, C: chain ends. Non-standard residues stand in square brackets, D forms with d. Residues, ends and D or L forms follow the SMILES beside them. ξ: configuration not given here. *: point of attachment. X4 = O=C([C@@H]1C[C@@H](N2CCC(F)(F)CC2)CN1[*:1])[*:2]; NMeAbu(4-morpholino) = CN[C@@H](CCN1CCOCC1)C(=O)O; Glu(NHSO2Me) = CS(=O)(=O)NC(=O)CC[C@H](N)C(=O)O; Phe(4-CF3) = N[C@@H](Cc1ccc(C(F)(F)F)cc1)C(=O)O; NMePhe(3-Cl) = CN[C@@H](Cc1cccc(Cl)c1)C(=O)O; Tyr(3-F) = N[C@@H](Cc1ccc(O)c(F)c1)C(=O)O; NMeW = CN[C@@H](Cc1c[nH]c2ccccc12)C(=O)O; Gly(NCH2CH2Ph) = O=C(O)CNCCc1ccccc1; X3 = O=C([C@H](CCCCO)N[*:1])[*:2]; Hyp = O=C(O)[C@@H]1C[C@@H](O)CN1; NMeF = CN[C@@H](Cc1ccccc1)C(=O)O; NMeGABA = CN(CCCC(=O)[*:2])[*:1]; NMeI = CC[C@H](C)[C@H](NC)C(=O)O; hPhe = N[C@@H](CCc1ccccc1)C(=O)O; ξThr(3R) = C[C@@H](O)C(N)C(=O)O; NMeD = CN[C@@H](CC(=O)O)C(=O)O; NMeL = CN[C@@H](CC(C)C)C(=O)O; NMeV = CN[C@H](C(=O)O)C(C)C; NMeAbu = CC[C@H](NC)C(=O)O; Pip = O=C(O)[C@@H]1CCCCN1; NMeA = CN[C@@H](C)C(=O)O; Piperidide = C1CCN(*)CC1; dNMeA = CN[C@H](C)C(=O)O; CH2CMe2OH = CC(C)(O)C*; NBuGly = CCCCNCC(=O)O; Isopentyl = CC(C)CC*; NPrGly = CCCNCC(=O)O; X2 = Fc1cncc(C*)c1; Sar = CNCC(=O)O; tBu = CC(C)(C)*
# Assay: Caco-2 membrane permeability, improved method as used in the following Examples (96-well, 20 to 24 h preincubation)
# Type: in vitro ADME
# Settings: human, Caco-2, Caco-2
# How it was run: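 Papp (cm/sec) was derived from LC/MS of basal samples collected 180 min after apical dosing in FaSSIF/HBSS pH 6.0 with 1% DMSO, against a basal HBSS pH 7.4 receiver containing 4% BSA. Three-week Caco-2 cultures were first preincubated with compound in DMEM+FaSSIF at 37 °C for 20–24 h.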
row,Compound,Papp A→B at 180 min
1,CCO[C@@H]1C[C@H]2C(=O)N(C)[C@@H](CC(C)C)C(=O)N[C@@H]([C@@H](C)O)C(=O)N(C)[C@@H](Cc3ccccc3)C(=O)N[C@@H](Cc3ccccc3)C(=O)N(C)[C@@H](CC(C)C)C(=O)N(C)[C@H](C(=O)N3CCCCC3)CC(=O)N[C@@H](C)C(=O)N(C)[C@@H](C(C)C)C(=O)N[C@@H](COC(C)(C)C)C(=O)N(C)[C@@H](CC(C)C)C(=O)N2C1 [pd373] (A[NMeV]S(tBu)[NMeL][Hyp](Et)[NMeL]T[NMeF]F[NMeL][NMeD]-Piperidide; lactam N-11),2 ×10⁻⁶ cm/s
2,CCCCN1CC(=O)N(C)[C@@H](Cc2ccccc2)C(=O)N[C@@H](CCC(=O)NS(C)(=O)=O)C(=O)N(C)[C@@H](CC(C)C)C(=O)N[C@@H](CC(C)C)C(=O)N(C)CC(=O)N(C)[C@@H](Cc2ccccc2)C(=O)N(C)[C@@H](CC(C)C)C(=O)N[C@@H](CC(C)C)C(=O)N(C)[C@@H](CC(C)C)C(=O)N[C@H](C(=O)N2CCCCC2)CC1=O [pd70] ([NBuGly][NMeF][Glu(NHSO2Me)][NMeL]L[Sar][NMeF][NMeL]L[NMeL]D-Piperidide; lactam N-11),0.17 ×10⁻⁶ cm/s
3,CC(C)C[C@@H]1NC(=O)[C@H](CC(C)C)N(C)C(=O)CCCN(C)C(=O)C[C@@H](C(=O)N2CCCCC2)NC(=O)[C@H](CC(C)C)N(C)C(=O)[C@H](CC(C)C)N(C)C(=O)[C@H](CC(C)C)NC(=O)[C@H](CC(C)C)N(C)C(=O)[C@H](CCC(=O)NS(C)(=O)=O)NC(=O)[C@H](Cc2ccccc2)N(C)C(=O)[C@H](Cc2ccccc2)N(C)C1=O [pd68] ([NMeGABA][NMeL]L[NMeF][NMeF][Glu(NHSO2Me)][NMeL]L[NMeL][NMeL]D-Piperidide; lactam N-11),0.1 ×10⁻⁶ cm/s
4,CC(C)C[C@H]1C(=O)N[C@H](C(=O)N2CCCCC2)CC(=O)N(C)[C@@H](C)C(=O)N[C@@H](C(C)C)C(=O)N(C)[C@@H](CC(C)C)C(=O)N(C)[C@@H](Cc2ccccc2)C(=O)N[C@@H](C(C)C)C(=O)N(C)[C@@H](Cc2ccccc2)C(=O)N(C)[C@@H](CC(C)C)C(=O)N[C@@H](CCCCO)C(=O)N(C)CC(=O)N1C [pd448] ([NMeA]V[NMeL][NMeF]V[NMeF][NMeL][X3][Sar][NMeL]D-Piperidide; lactam N-11),1.3 ×10⁻⁶ cm/s
5,CCCCN1CC(=O)N(C)[C@@H](C(C)C)C(=O)N[C@H](C(=O)N2CCCCC2)CC(=O)N(C)[C@@H](C)C(=O)N[C@@H](CC(C)C)C(=O)N(C)[C@@H](CC(C)C)C(=O)N(C)[C@@H](Cc2ccccc2)C(=O)N[C@@H](CC(C)C)C(=O)N(C)[C@@H](Cc2ccccc2)C(=O)N(C)[C@@H](CCN2CCOCC2)C(=O)N[C@@H]([C@@H](C)O)C1=O [pd453] ([NMeA]L[NMeL][NMeF]L[NMeF][NMeAbu(4-morpholino)]T[NBuGly][NMeV]D-Piperidide; lactam N-11),2.3 ×10⁻⁶ cm/s
6,CCCN1CC(=O)N(C)[C@@H](CC(C)C)C(=O)N[C@@H](COCCC(C)C)C(=O)N(C)[C@@H](Cc2ccccc2)C(=O)N(C)[C@@H](C(C)C)C(=O)N[C@H](C(=O)N2CCCCC2)CC(=O)N[C@H](C(C)C)C(=O)N(C)[C@@H](Cc2ccccc2)C(=O)N[C@@H](COCC(C)(C)O)C(=O)N(C)[C@@H](CC(C)C)C(=O)N[C@@H]([C@@H](C)O)C1=O [pd426] ([dV][NMeF]S(CH2CMe2OH)[NMeL]T[NPrGly][NMeL]S(Isopentyl)[NMeF][NMeV]D-Piperidide; lactam N-11),1.4 ×10⁻⁶ cm/s
7,CCCCN1CC(=O)N(C)[C@@H](CC(C)C)C(=O)N[C@@H](COC(C)(C)C)C(=O)N(C)[C@@H](Cc2ccccc2)C(=O)N(C)[C@@H](C(C)C)C(=O)N[C@H](C(=O)N2CCCCC2)CC(=O)N[C@H](C(C)C)C(=O)N(C)[C@@H](Cc2ccccc2)C(=O)N[C@@H](CCC(=O)NS(C)(=O)=O)C(=O)N(C)[C@@H](CC(C)C)C(=O)N[C@@H](CC(C)C)C1=O [pd67] ([dV][NMeF][Glu(NHSO2Me)][NMeL]L[NBuGly][NMeL]S(tBu)[NMeF][NMeV]D-Piperidide; lactam N-11),0.06 ×10⁻⁶ cm/s
8,CCCCN1CC(=O)N(C)[C@@H](CC(C)C)C(=O)N[C@@H](CC(C)C)C(=O)N(C)[C@@H](Cc2ccccc2)C(=O)N(C)[C@@H](C(C)C)C(=O)N[C@H](C(=O)N2CCCCC2)CC(=O)N[C@H](CC(C)C)C(=O)N(C)[C@@H](Cc2cccc(Cl)c2)C(=O)N[C@@H](CCC(=O)NS(C)(=O)=O)C(=O)N(C)[C@@H](CC(C)C)C(=O)NC([C@@H](C)O)C1=O (stereo partly drawn) [pd59] ([dL][NMePhe(3-Cl)][Glu(NHSO2Me)][NMeL][ξThr(3R)][NBuGly][NMeL]L[NMeF][NMeV]D-Piperidide; lactam N-11),< 0.0088 ×10⁻⁶ cm/s
9,CCO[C@@H]1C[C@H]2C(=O)N(C)[C@@H](CC(C)C)C(=O)N[C@@H]([C@@H](C)O)C(=O)N(C)[C@@H](CC(C)C)C(=O)N(C)[C@@H](C(C)C)C(=O)N[C@@H](Cc3ccc(C(F)(F)F)cc3)C(=O)N3CCCC[C@H]3C(=O)N[C@@H](CC(C)C)C(=O)N[C@H](C(=O)N3CCCCC3)CC(=O)N(C)[C@H](C)C(=O)N(C)[C@@H](CC(C)C)C(=O)N2C1 [pd377] ([dNMeA][NMeL][Hyp](Et)[NMeL]T[NMeL][NMeV][Phe(4-CF3)][Pip]LD-Piperidide; lactam N-11),1.4 ×10⁻⁶ cm/s
10,CC(C)C[C@H]1C(=O)N[C@@H](COC(C)(C)C)C(=O)N(C)[C@@H](Cc2ccccc2)C(=O)N(C)[C@@H](CC(C)C)C(=O)N[C@H](C(=O)N2CCCCC2)CC(=O)N2C[C@H](N3CCC(F)(F)CC3)C[C@H]2C(=O)N(C)[C@@H](Cc2cccc(Cl)c2)C(=O)N[C@@H](C(C)C)C(=O)N(C)[C@@H](C(C)C)C(=O)N[C@@H]([C@@H](C)O)C(=O)N(C)CC(=O)N1C [pd458] ([X4][NMePhe(3-Cl)]V[NMeV]T[Sar][NMeL]S(tBu)[NMeF][NMeL]D-Piperidide; lactam N-11),1.2 ×10⁻⁶ cm/s
11,CC(C)C[C@@H]1NC(=O)[C@H](Cc2ccccc2)N(C)C(=O)[C@@H](C(C)C)NC(=O)C[C@@H](C(=O)N2CCCCC2)NC(=O)[C@H](C)N(C)C(=O)[C@H](CC(C)C)N(C)C(=O)[C@H](CCc2ccccc2)NC(=O)[C@H](CC(C)C)N(C)C(=O)CN(C)C(=O)[C@H]([C@@H](C)O)NC(=O)[C@H](CC(C)C)N(C)C1=O [pd312] ([dV][NMeF]L[NMeL]T[Sar][NMeL][hPhe][NMeL][NMeA]D-Piperidide; lactam N-11),1.5 ×10⁻⁶ cm/s
12,CC[C@H](C)[C@@H]1NC(=O)[C@H](CC(C)C)N(C)C(=O)CN(C)C(=O)C[C@@H](C(=O)N2CCCCC2)NC(=O)[C@H](CC(C)C)N(C)C(=O)[C@@H](COC(C)(C)C)NC(=O)[C@H](CC)N(C)C(=O)[C@H](Cc2ccccc2)N(C)C(=O)CN(CCc2ccccc2)C(=O)[C@H]([C@@H](C)O)NC(=O)[C@H](CC)N(C)C1=O [pd411] ([Sar][NMeL]I[NMeAbu]T[Gly(NCH2CH2Ph)][NMeF][NMeAbu][dS](tBu)[NMeL]D-Piperidide; lactam N-11),3.3 ×10⁻⁶ cm/s

# Same assay, conditions: human, Caco-2, Caco-2 (cm/sec)
row,Compound,Papp A→B at 180 min
1,CC(C)C[C@@H]1NC(=O)[C@H](Cc2ccccc2)N(C)C(=O)[C@H]2CCCN2C(=O)C[C@@H](C(=O)N2CCCCC2)N(C)C(=O)[C@H](Cc2ccccc2)N(C)C(=O)[C@H](Cc2ccccc2)N(C)C(=O)[C@H](COC(C)(C)C)NC(=O)[C@H](C(C)C)N(C)C(=O)CN(C)C(=O)[C@H]([C@@H](C)O)NC(=O)[C@H](CC(C)C)N(C)C1=O [pd200] ([dP][NMeF]L[NMeL]T[Sar][NMeV]S(tBu)[NMeF][NMeF][NMeD]-Piperidide; lactam N-11),2.6 ×10⁻⁶ cm/s
2,CC[C@H](C)[C@H]1C(=O)N[C@@H]([C@@H](C)O)C(=O)N(C)CC(=O)N(C)[C@@H](CC(C)C)C(=O)N[C@H](C(=O)N2CCCCC2)CC(=O)N(C)[C@@H](C)C(=O)N[C@@H](CC(C)C)C(=O)N(C)[C@@H](CC(C)C)C(=O)N(C)[C@@H](Cc2c[nH]c3ccccc23)C(=O)N[C@@H](C(C)C)C(=O)N(C)[C@@H](CC(C)C)C(=O)N1C [pd102] ([NMeA]L[NMeL][NMeW]V[NMeL][NMeI]T[Sar][NMeL]D-Piperidide; lactam N-11),1.1 ×10⁻⁶ cm/s
3,CC(C)C[C@@H]1NC(=O)[C@H](Cc2ccccc2)N(C)C(=O)[C@H](COC(C)(C)C)NC(=O)[C@H](Cc2ccccc2)N(C)C(=O)[C@H](Cc2ccccc2)N(C)C(=O)[C@H](CC(C)C)N(C)C(=O)[C@@H](CC(C)C)NC(=O)C[C@@H](C(=O)N2CCCCC2)NC(=O)[C@H](Cc2ccccc2)N(C)C(=O)[C@H]([C@@H](C)O)NC(=O)[C@H](CC(C)C)N(C)C1=O [pd243] ([dL][NMeL][NMeF][NMeF]S(tBu)[NMeF]L[NMeL]T[NMeF]D-Piperidide; lactam N-11),0.057 ×10⁻⁶ cm/s
4,CC(C)C[C@H]1C(=O)N[C@H](C(=O)N2CCCCC2)CC(=O)N(C)CCCC(=O)N(C)[C@@H](CC(C)C)C(=O)N[C@@H](Cc2ccc(O)c(F)c2)C(=O)N(C)[C@@H](CC(C)C)C(=O)N(C)[C@@H](Cc2ccccc2)C(=O)N[C@@H](COC(C)(C)C)C(=O)N(C)[C@@H](CC(C)C)C(=O)N[C@@H]([C@@H](C)O)C(=O)N(C)CC(=O)N1C [pd114] ([NMeGABA][NMeL][Tyr(3-F)][NMeL][NMeF]S(tBu)[NMeL]T[Sar][NMeL]D-Piperidide; lactam N-11),0.17 ×10⁻⁶ cm/s
5,CC[C@H](C)[C@H]1C(=O)N[C@@H]([C@@H](C)O)C(=O)N(C)CC(=O)N(C)[C@@H](CC(C)C)C(=O)N[C@H](C(=O)N2CCCCC2)CC(=O)N(C)[C@@H](C(C)C)C(=O)N[C@@H](COCc2cncc(F)c2)C(=O)N(C)[C@@H](CC(C)C)C(=O)N(C)[C@@H](Cc2ccccc2)C(=O)N[C@@H](CC(C)C)C(=O)N(C)[C@@H](Cc2ccccc2)C(=O)N1C [pd181] ([NMeV]S(X2)[NMeL][NMeF]L[NMeF][NMeI]T[Sar][NMeL]D-Piperidide; lactam N-11),1.1 ×10⁻⁶ cm/s
